The assay has as its system P. falciparum 3D7 growth, pLDH absorbance. Nature of the assay: P. falciparum 3D7 growth inhibition, dose response, strain 3D7 (AID 2305).

One may read the IC50 as the concentration that inhibits the measured activity by half. A higher IC50 goes with lower potency. `CC(=O)Nc1ccc(CCNC(C)Cc2ccc(C(=O)Nc3ccc(CC(C)NCCc4cccc(Cl)c4)cc3)cc2)cc1` (stereo unspecified) had an IC50 of 330 nM.

Compound `CCN(CC)CCOc1ccc(C(O)(C#CC(O)(c2ccccc2)c2ccc(OCCN(CC)CC)cc2)c2ccccc2)cc1` (stereo unspecified) had an IC50 of 1310 nM.

`CCOc1cc(N)c2nc3ccc([N+](=O)[O-])cc3cc2c1` returned an IC50 of 150 nM.

As for `Cc1ccc(F)cc1S(=O)(=O)N1CCCCC(c2ccc(C(F)(F)F)cc2)=N1`, the IC50 was found to be 940 nM. Compared with the last compound, the IC50 is about 6.3-fold higher.

As to `CN1CCC(NCc2cccc(-c3nn(C)c4nc(NC5CCCC5)ncc34)c2)CC1`, the IC50 is 1020 nM. This IC50 and that of the compound before are within 1.5-fold of each other.

Take `CN(C)C(=O)O[C@@H]1CN[C@H](C#Cc2cc3ncnc(Nc4ccc5c(cnn5Cc5cccc(F)c5)c4)c3s2)C1`: the IC50 was 760 nM.

On to `O=C(/C=C/c1ccc(Cl)c(Cl)c1)NCCCCCN1CCCC(c2c[nH]c3ccccc23)C1` (stereo unspecified), for which the IC50 was found to be 810 nM. The value for `COc1cc(NC(=O)c2nn(CCCN3CCC(N4CCCC4)CC3)cc2-c2ccc(Cl)c(Cl)c2)cc(OC)c1OC` was 560 nM; that for `CC(C)CNCc1cccc(-c2ccc(CN(C(=O)c3cccs3)C3CCN(Cc4ccccc4)CC3)cc2)c1` was 1010 nM; that for `CCCCc1cc(NCC)nc(Nc2ccc(OC)cc2)n1` was 1180 nM. Under `CN1CCC(NCc2ccc(-c3ccc(S(=O)(=O)NCc4ccccc4)c(F)c3)cc2)CC1` stands 610 nM; under `O=C(NCCCCCN1CCC(c2c[nH]c3ccccc23)CC1)Nc1ccc(I)cc1`, 990 nM; under `CCCCNc1nc(NCCCC)c2c(C)c(Cc3ccccc3)c(NCCCC)nc2n1`, 890 nM. Under `CCn1c(O)c(N=NC(=S)N2CCCC2)c2ccccc21` stands 1000 nM; under `Cc1ccc(/C=C/C(=O)NC2CCC(N3CCC(c4ccccc4C)CC3)CC2)cc1C` (stereo unspecified), 810 nM. For the compound `Cn1c(Nc2nnc(C3CC3)s2)nc2cc(Nc3ccnc(Nc4cccc(CS(C)(=O)=O)c4)n3)ccc21`, the IC50 was found to be 680 nM. The value for `Cc1ccc(NC(=O)N2CCCN(CCCCCNC(=O)/C=C/c3ccc(Cl)c(Cl)c3)CC2)cc1C` was 770 nM. Under `CCC(C)c1ccc(-n2c(Nc3ccccc3)nc3cc(S(N)(=O)=O)ccc32)cc1` (stereo unspecified) stands 1060 nM; under `CC(=O)N(Cc1ccccc1-c1cccc(CNCCc2ccccc2)c1)C1CCN(Cc2ccccc2)CC1`, 1100 nM; under `COC(=O)c1ccc2c(-c3nc4ccc(OC)cc4[nH]3)c[nH]c2c1`, 880 nM.

In turn, `Cc1cccc2[nH]c(-c3cccc(-c4ccc(CNCc5ccc(S(C)(=O)=O)cc5)cc4)c3)nc12` had an IC50 of 180 nM.

`O=C(NC1CCC(CN2CCC(c3c[nH]c4ccccc34)CC2)CC1)c1ccc(-c2ccccc2[N+](=O)[O-])o1` (stereo unspecified) came in with an IC50 of 770 nM. The value for `CN1CCN(c2ccnc3ccc(NC(=O)Nc4ccc5c(c4)CCCC5=O)cc23)CC1` was 130 nM; that for `Fc1ccc2[nH]c3c(NCCN4CCCCC4)ncnc3c2c1` was 830 nM; that for `O=C(/C=C/c1ccc(Cl)c(Cl)c1)NCCCCCN1CCC(NC(=O)Nc2ccc([N+](=O)[O-])cc2)CC1` was 690 nM. Under `Cc1[nH]c(C)c(-c2ccc(Oc3ccc(S(C)=O)cc3)cc2)c(=O)c1Br` (stereo unspecified) stands 760 nM; under `COc1ccc(CNC(=O)c2cc3c(=O)n4ccccc4nc3n(CCc3ccccc3)c2=N)cc1`, 330 nM; under `COc1cccc(-c2ccc(C(=O)NC3CCN(Cc4ccc(N(C)C)cc4)CC3)s2)c1`, 1390 nM.

In turn, `Cc1ccc(Cn2ncc(N3CCCNCC3)c(Cl)c2=O)cc1NC(=O)Nc1ccc(-c2ccccc2)cc1` came in with a half-inhibitory concentration (IC50) of 630 nM.

Turning to `COc1cc(C=NNc2cc(C)nc3ccccc23)cc(OC)c1OC`, the IC50 came out at 730 nM. This IC50 and that of the compound before are within 1.5-fold of each other. The value for `O=C(Nc1ccc2c(c1)OCO2)c1cc(-c2cccnc2)cnc1NCc1ccc2c(c1)OCO2` was 1190 nM. Compound `CC(=O)N1N=C(c2[nH]c3ccc(Br)cc3c2C)OC1c1ccccc1` (stereo unspecified) registered an IC50 of 780 nM. Under `CCOC(=O)c1c(C)n(-c2ccc(Cl)cc2)c2ccc(OC(=O)C=Cc3ccccc3)cc12` stands 700 nM. The value for `CNc1nc(NN=Cc2ccccc2Cl)nc(Nc2cccc(C(F)(F)F)c2)n1` was 920 nM. Compound `O=C(NC1CCN(Cc2ccccc2O)C1)c1ccc(-c2ccccc2)cc1` (stereo unspecified) showed an IC50 of 840 nM. `CS(=O)(=O)CCNCc1nc(-c2ccc3c(Nc4ccc(Oc5ccccn5)cc4)ccnc3c2)cs1` registered an IC50 of 680 nM. The IC50 values of the last two compounds are within 1.5-fold of each other.

`N#Cc1cncc(-c2nc3c(N4CCC(N5CCCC5)CC4)cccc3n2CCNCc2ccccc2)c1` gave an IC50 of 870 nM. This IC50 and that of the compound before are within 1.5-fold of each other.

Compound `Nc1ccn([C@@H]2O[C@H](COC(c3ccccc3)(c3ccccc3)c3ccccc3)[C@@H](O)[C@@H]2O)c(=O)n1` showed an IC50 of 830 nM. Under `CC(C)N1CCC(NC(=O)N2CCCN(c3ncnc4cc(-c5ccccc5)sc34)CC2)CC1` stands 860 nM; under `CC(=O)Nc1cccc(C(=O)Nc2cccc(-c3ccc(-c4nc5ccc(F)cc5[nH]4)s3)c2)c1`, 900 nM; under `O=C(N[C@@H](Cc1ccccc1)C(=O)NC1CCCCCC1)c1ccc(O)c(-c2cccc(C(F)(F)F)c2)c1`, 730 nM.

On to `Cc1cccc(NC(=O)c2ccc(C(=O)NC3CCN(CC4CCCCC4)CC3)cc2)c1`, for which the 50% inhibitory concentration (IC50) was 810 nM. Under `S=C(NCCc1ccc(Cl)cc1)N1CCC(CN2CCC(c3c[nH]c4ccccc34)CC2)CC1` stands 1000 nM; under `CCCCc1ccc2[nH]cc(C(=O)OCC)c(=O)c2c1`, 630 nM. Under `CCOc1ccc(Br)cc1/C=C/C(=O)Nc1ccc2c(c1)[C@@H]1CC[C@H]2N1C` stands 1050 nM; under `COc1ccccc1C1CCN(C2CCC(NC(=O)c3cc(-c4ccc(Cl)cc4)cs3)CC2)CC1` (stereo unspecified), 380 nM.

Take `CC(C)N1CCN(c2ccc(OCCCN3CCN(c4cccc(Cl)c4Cl)CC3)c(C(F)(F)F)c2)CC1`: the IC50 was 810 nM. In turn, `Cc1cc(N2CCCC2)nc(Nc2ccc(NC(=O)c3cccc(F)c3)cc2)n1` displayed an IC50 of 180 nM. Consider `Cc1ccc2nc(N(CCCn3ccnc3)C(=O)C=Cc3cccs3)sc2c1`, for which the IC50 is 1390 nM. Under `CC(=NO)C1=C(O)C(c2ccccc2)N(c2ccccc2)C1=O` (stereo unspecified) stands 700 nM; under `CN(C)CCN(C)Cc1ccc(-c2ccc3c(Nc4ccc(Oc5ccccc5)cc4)ccnc3c2)o1`, 180 nM; under `CCCCCCNC(=O)C(N)CCCC(N)C(=O)NCCCCCC` (stereo unspecified), 160 nM. The value for `COCCCNc1sc(S(=O)(=O)c2ccccc2)nc1S(=O)(=O)c1ccc(Cl)cc1` was 880 nM. Take `CCC1CN2CCc3cc(OC)c(OC)cc3C2CC1CC1NCCc2cc(OC)c(OC)cc21` (stereo unspecified): the IC50 came to 140 nM. This IC50 is about 6.3-fold lower than that of the compound before. The value for `O=C(NCCCCN1CCC(c2ccc3c(c2OCCCO)CCCC3)CC1)c1ccc(-c2ccc(C(F)(F)F)cc2)cc1` was 720 nM; that for `O=C(/C=C/c1ccc(Cl)c(Cl)c1)N1CCC(CN2CCC(c3c(-c4ccccc4)[nH]c4ccccc34)CC2)CC1` was 340 nM. Under `O=C(NCCN1CCCC1)c1cccc(-c2ccc(-c3nc4ccc(C(F)(F)F)cc4[nH]3)cc2)c1` stands 750 nM. The value for `O=[N+]([O-])c1cc(C(c2ccc(O)c([N+](=O)[O-])c2)C(Cl)(Cl)Cl)ccc1O` was 730 nM. In turn, `COc1cc2nc(-c3ccccc3)nc(N3CCN(CC(=O)N4CCCC4)CC3)c2cc1OC` came in with an IC50 of 1130 nM. This IC50 lies about 1.5-fold higher than the previous one. The value for `CCN(CC)S(=O)(=O)n1ncc2c3c(N)nc(N)nc3ccc21` was 50 nM; that for `CCN(CCNc1nc(NCCc2cnc[nH]2)nc(N(CCC#N)Cc2ccccc2)n1)c1cccc(C)c1` was 710 nM.
